Experimental data: ChEMBL document CHEMBL4041501, “Isolation of Acacetin from Calea urticifolia with Inhibitory Properties against Human Monoamine Oxidase-A and -B” (J Nat Prod, 2016); call rule not given here

Assays:
[1] = target: T1, Amine oxidase [flavin-containing] A (Homo sapiens, UniProt P21397); assay: Inhibition of recombinant human MAO-A at 15 uM after 20 mins relative to control
T1 sequence (P21397 whole entry): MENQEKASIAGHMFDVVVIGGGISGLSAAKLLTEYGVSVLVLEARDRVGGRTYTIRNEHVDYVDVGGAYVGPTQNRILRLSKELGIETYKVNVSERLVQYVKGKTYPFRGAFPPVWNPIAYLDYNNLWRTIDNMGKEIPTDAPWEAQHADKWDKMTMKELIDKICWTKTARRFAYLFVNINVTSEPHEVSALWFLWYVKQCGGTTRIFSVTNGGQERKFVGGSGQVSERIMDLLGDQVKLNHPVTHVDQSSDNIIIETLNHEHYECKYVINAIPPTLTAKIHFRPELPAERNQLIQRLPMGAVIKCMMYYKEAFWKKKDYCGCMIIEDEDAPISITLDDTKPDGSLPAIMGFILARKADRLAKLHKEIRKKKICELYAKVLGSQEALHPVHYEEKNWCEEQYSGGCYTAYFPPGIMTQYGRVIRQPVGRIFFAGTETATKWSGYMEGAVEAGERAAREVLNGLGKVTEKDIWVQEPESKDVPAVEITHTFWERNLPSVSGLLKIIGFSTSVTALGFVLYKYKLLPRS

[2] = target: T2, Amine oxidase [flavin-containing] B (Homo sapiens, UniProt P27338); assay: Time-dependent inhibition of recombinant human MAO-B assessed as reduction in 4-hydroxyquinoline formation at 0.2 uM using kynuramine as substrate preincubated up to 15 mins followed by substrate addition by fluorometric assay
T2 sequence (P27338 whole entry): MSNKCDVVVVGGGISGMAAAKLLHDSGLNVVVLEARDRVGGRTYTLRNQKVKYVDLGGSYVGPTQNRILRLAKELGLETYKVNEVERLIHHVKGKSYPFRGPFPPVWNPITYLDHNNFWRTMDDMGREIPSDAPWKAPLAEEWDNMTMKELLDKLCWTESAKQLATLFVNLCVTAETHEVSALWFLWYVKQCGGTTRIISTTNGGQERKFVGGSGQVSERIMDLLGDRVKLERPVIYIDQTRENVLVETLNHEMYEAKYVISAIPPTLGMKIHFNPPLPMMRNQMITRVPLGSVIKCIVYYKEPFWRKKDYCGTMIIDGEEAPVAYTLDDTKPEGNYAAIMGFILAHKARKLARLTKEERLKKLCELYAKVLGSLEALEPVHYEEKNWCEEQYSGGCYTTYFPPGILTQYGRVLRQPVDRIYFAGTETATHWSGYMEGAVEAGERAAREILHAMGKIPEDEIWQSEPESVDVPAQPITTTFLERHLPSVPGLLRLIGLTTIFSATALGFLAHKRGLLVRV

[3] = target: T2, Amine oxidase [flavin-containing] B; assay: Reversible inhibition of recombinant human MAO-B assessed as recovery of enzyme activity at 5 uM preincubated for 20 mins followed by overnight dialysis; parameters: scale not given: the % may be the effect or the level left
[4] = target: T1, Amine oxidase [flavin-containing] A; assay: Inhibition of recombinant human MAO-A assessed as reduction in 4-hydroxyquinoline formation using kynuramine as substrate after 20 mins by fluorometric assay
[5] = target: T1, Amine oxidase [flavin-containing] A; assay: Time-dependent inhibition of recombinant human MAO-A assessed as reduction in 4-hydroxyquinoline formation at 0.5 uM using kynuramine as substrate preincubated up to 15 mins followed by substrate addition by fluorometric assay
[6] = target: T1, Amine oxidase [flavin-containing] A; assay: Reversible inhibition of recombinant human MAO-A assessed as recovery of enzyme activity at 15 uM preincubated for 20 mins followed by overnight dialysis relative to control; parameters: scale not given: the % may be the effect or the level left; conditions: read-out: Activity
[7] = target: T2, Amine oxidase [flavin-containing] B; assay: Inhibition of recombinant human MAO-B at 5 uM after 20 mins relative to control
[8] = target: T1, Amine oxidase [flavin-containing] A; assay: Competitive inhibition of recombinant human MAO-A assessed as reduction in 4-hydroxyquinoline formation using varying levels of kynuramine as substrate after 20 mins by Lineweaver-Burk plot analysis
[9] = target: T2, Amine oxidase [flavin-containing] B; assay: Inhibition of recombinant human MAO-B after 30 mins
[10] = target: T1, Amine oxidase [flavin-containing] A; assay: Inhibition of recombinant human MAO-A after 30 mins

inhibition at 15 µM [1] [%]	TDI [2]	Activity [3] [%]	IC50 [4] [µM]	TDI [5]	activity at 15 µM [6] [%]	inhibition (INH) [7] [%]	Ki [8] [µM]	SMILES	IC50 [9] [µM]	IC50 [10] [µM]
> 95	Not Active	90	0.121	Not Active	> 90	90	0.0592	COc1ccc(-c2cc(=O)c3c(O)cc(O)cc3o2)cc1 [ACACETIN]		
								O=C1C[C@@H](c2ccc(O)cc2)Oc2cc(O)cc(O)c21 [NARINGENIN]	288	955
